Assays:
[1] = system: AsPC-1 (K-Ras G12D); assay: Potency assay: pERK; type: cell-based; settings: Homo sapiens, ASPC1, read-out: pERK EC50
[2] = system: AsPC-1 (K-Ras G12D); assay: CellTiter-Glo cell viability assay; type: cell-based; settings: Homo sapiens, ASPC1, 120 h, read-out: AsPC-1 Cell Viability assay data IC50, K-Ras G12D, 5-day treatment
Outline: (§1)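 Luminescent viability readout on day 5, plates first brought to room temperature for ~30 min; compounds added straight to plated RAS-mutant cells. Values expressed as percent of mean DMSO signal, curves fitted with a four-parameter logistic model.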

[3] = system: NCI-H358 (K-Ras G12C); assay: CellTiter-Glo cell viability assay; type: cell-based; settings: Homo sapiens, NCI-H358, 120 h, read-out: H358 Cell Viability assay data IC50, K-Ras G12C, 5-day treatment
Outline: as §1

[4] = target: KRAS G12D (Homo sapiens, UniProt P01116+P62937, G12D); assay: Ras-Raf disruption / FRET / MOA assay (BRAF RBD); type: biochemical; settings: KRAS G12D FRET data IC50, Ras-Raf disruption, with Cyclophilin A
Outline: (§2)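 Compound-induced Ras–Cyclophilin A ternary complex disrupting BRAF RBD binding, read as IC50 from reduced TR-FRET ratio relative to DMSO. Final: Ras-GMPPNP 12.5 nM, BRAF RBD 50 nM, Cyclophilin A 25 μM, top compound 30 μM (3-fold, 10 points); 3 h at 25 °C, then 1.5 h with detection antibodies.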

[5] = target: KRAS G12S (Homo sapiens, UniProt P01116+P62937, G12S); assay: Ras-Raf disruption / FRET / MOA assay (BRAF RBD); type: biochemical; settings: KRAS G12S FRET data IC50, Ras-Raf disruption, with Cyclophilin A
Outline: as §2

[6] = target: KRAS G12V (Homo sapiens, UniProt P01116+P62937, G12V); assay: Ras-Raf disruption / FRET / MOA assay (BRAF RBD); type: biochemical; settings: KRAS G12V FRET data IC50, Ras-Raf disruption, with Cyclophilin A
Outline: as §2

[7] = target: KRAS G13C (Homo sapiens, UniProt P01116+P62937, G13C); assay: Ras-Raf disruption / FRET / MOA assay (BRAF RBD); type: biochemical; settings: KRAS G13C FRET data IC50, Ras-Raf disruption, with Cyclophilin A
Outline: as §2

[8] = target: KRAS G13D (Homo sapiens, UniProt P01116+P62937, G13D); assay: Ras-Raf disruption / FRET / MOA assay (BRAF RBD); type: biochemical; settings: KRAS G13D FRET data IC50, Ras-Raf disruption, with Cyclophilin A
Outline: as §2

[9] = target: KRAS Q61H (Homo sapiens, UniProt P01116+P62937, Q61H); assay: Ras-Raf disruption / FRET / MOA assay (BRAF RBD); type: biochemical
Outline: as §2

[10] = target: KRAS WT (Homo sapiens, UniProt P01116+P62937); assay: Ras-Raf disruption / FRET / MOA assay (BRAF RBD); type: biochemical; settings: KRAS WT FRET data IC50, Ras-Raf disruption, with Cyclophilin A
Outline: as §2

[11] = target: NRAS G12C (Homo sapiens, UniProt P01111+P62937, G12C); assay: Ras-Raf disruption / FRET / MOA assay (BRAF RBD); type: biochemical; settings: NRAS G12C FRET data IC50, NRAS G12C
Outline: as §2

[12] = target: NRAS Q61K (Homo sapiens, UniProt P01111+P62937, Q61K); assay: Ras-Raf disruption / FRET / MOA assay (BRAF RBD); type: biochemical
Outline: as §2

[13] = target: NRAS Q61R (Homo sapiens, UniProt P01111+P62937, Q61R); assay: Ras-Raf disruption / FRET / MOA assay (BRAF RBD); type: biochemical
Outline: as §2

[14] = target: NRAS WT (Homo sapiens, UniProt P01111+P62937); assay: Ras-Raf disruption / FRET / MOA assay (BRAF RBD); type: biochemical
Outline: as §2

[15] = target: KRAS G12C (Homo sapiens, UniProt P01116+P62937, G12C); assay: Ras-Raf disruption / FRET / MOA assay (BRAF RBD); type: biochemical; settings: KRAS G12C FRET data IC50, Ras-Raf disruption, with Cyclophilin A
Outline: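 TR-FRET read-out after 1.5 h with anti-His Eu-W1024 (10 nM) and anti-GST APC (50 nM), following 3 h at 25 °C of compound (top 30 μM, 3-fold, 10 points) with 25 μM Cyclophilin A, 12.5 nM GMPPNP-loaded K-Ras G12C and 50 nM BRAF RBD; IC50 reported.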

NRAS Q61K, sequence (P01111 whole entry Q61K): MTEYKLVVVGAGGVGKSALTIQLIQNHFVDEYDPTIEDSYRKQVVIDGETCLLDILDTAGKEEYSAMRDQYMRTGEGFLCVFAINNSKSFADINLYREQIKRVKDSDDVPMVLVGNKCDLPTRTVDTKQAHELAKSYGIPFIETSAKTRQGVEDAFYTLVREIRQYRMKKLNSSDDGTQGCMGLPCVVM
NRAS Q61K, sequence (P62937 whole entry): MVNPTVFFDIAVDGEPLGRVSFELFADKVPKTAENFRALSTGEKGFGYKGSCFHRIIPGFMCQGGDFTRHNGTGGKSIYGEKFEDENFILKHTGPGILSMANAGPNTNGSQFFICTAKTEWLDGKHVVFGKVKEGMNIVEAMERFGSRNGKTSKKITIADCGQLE
KRAS G12C, sequence (P01116 1-169 isoform P01116-2 G12C limits assumed): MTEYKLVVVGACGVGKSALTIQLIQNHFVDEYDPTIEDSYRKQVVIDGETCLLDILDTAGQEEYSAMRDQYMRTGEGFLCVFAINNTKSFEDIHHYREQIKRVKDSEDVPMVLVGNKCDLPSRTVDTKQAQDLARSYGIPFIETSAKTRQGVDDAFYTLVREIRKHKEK
KRAS G12C, sequence (P62937 whole entry): as the sequence (P62937 whole entry) above
NRAS G12C, sequence (P01111 whole entry G12C): as the sequence (P01111 whole entry Q61K) above, with G12C, K61Q counted along it
NRAS G12C, sequence (P62937 whole entry): as the sequence (P62937 whole entry) above
KRAS G12V, sequence (P01116 1-169 isoform P01116-2 G12V limits assumed): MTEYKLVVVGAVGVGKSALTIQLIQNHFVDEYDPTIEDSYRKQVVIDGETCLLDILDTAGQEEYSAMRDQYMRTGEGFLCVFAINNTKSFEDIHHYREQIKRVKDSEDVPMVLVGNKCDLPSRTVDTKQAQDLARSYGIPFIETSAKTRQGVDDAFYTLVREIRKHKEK
KRAS G12V, sequence (P62937 whole entry): as the sequence (P62937 whole entry) above
KRAS G12S, sequence (P01116 1-169 isoform P01116-2 G12S limits assumed): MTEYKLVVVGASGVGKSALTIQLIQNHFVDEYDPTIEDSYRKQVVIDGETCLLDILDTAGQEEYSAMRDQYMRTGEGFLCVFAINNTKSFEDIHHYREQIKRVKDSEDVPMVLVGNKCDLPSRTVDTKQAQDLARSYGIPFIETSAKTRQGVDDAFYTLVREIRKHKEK
KRAS G12S, sequence (P62937 whole entry): as the sequence (P62937 whole entry) above
KRAS WT, sequence (P01116 1-169 isoform P01116-2 limits assumed): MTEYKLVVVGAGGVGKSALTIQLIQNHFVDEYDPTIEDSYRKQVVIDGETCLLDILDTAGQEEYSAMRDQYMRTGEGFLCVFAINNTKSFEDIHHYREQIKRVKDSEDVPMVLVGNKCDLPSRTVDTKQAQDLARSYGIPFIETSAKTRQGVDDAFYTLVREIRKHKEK
KRAS WT, sequence (P62937 whole entry): as the sequence (P62937 whole entry) above
KRAS G13C, sequence (P01116 1-169 isoform P01116-2 G13C limits assumed): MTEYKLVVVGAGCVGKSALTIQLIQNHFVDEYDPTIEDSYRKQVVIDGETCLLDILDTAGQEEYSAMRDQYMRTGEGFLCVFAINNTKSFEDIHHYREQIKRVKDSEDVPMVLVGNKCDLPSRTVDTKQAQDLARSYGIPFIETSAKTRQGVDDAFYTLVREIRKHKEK
KRAS G13C, sequence (P62937 whole entry): as the sequence (P62937 whole entry) above
NRAS WT, sequence (P01111 whole entry): as the sequence (P01111 whole entry Q61K) above, with K61Q counted along it
NRAS WT, sequence (P62937 whole entry): as the sequence (P62937 whole entry) above
KRAS G13D, sequence (P01116 1-169 isoform P01116-2 G13D limits assumed): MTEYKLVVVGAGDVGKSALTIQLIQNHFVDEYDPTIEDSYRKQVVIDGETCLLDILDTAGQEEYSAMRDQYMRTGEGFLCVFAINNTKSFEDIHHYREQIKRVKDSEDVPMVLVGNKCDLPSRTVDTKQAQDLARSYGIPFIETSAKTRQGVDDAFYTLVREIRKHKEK
KRAS G13D, sequence (P62937 whole entry): as the sequence (P62937 whole entry) above
KRAS Q61H, sequence (P01116 1-169 isoform P01116-2 Q61H limits assumed): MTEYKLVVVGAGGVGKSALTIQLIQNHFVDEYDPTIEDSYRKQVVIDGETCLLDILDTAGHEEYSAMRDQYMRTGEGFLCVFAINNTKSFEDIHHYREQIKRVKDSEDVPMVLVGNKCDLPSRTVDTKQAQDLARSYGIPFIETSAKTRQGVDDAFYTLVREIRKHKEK
KRAS Q61H, sequence (P62937 whole entry): as the sequence (P62937 whole entry) above
NRAS Q61R, sequence (P01111 whole entry Q61R): as the sequence (P01111 whole entry Q61K) above, with K61R counted along it
NRAS Q61R, sequence (P62937 whole entry): as the sequence (P62937 whole entry) above
KRAS G12D, sequence (P01116 1-169 isoform P01116-2 G12D limits assumed): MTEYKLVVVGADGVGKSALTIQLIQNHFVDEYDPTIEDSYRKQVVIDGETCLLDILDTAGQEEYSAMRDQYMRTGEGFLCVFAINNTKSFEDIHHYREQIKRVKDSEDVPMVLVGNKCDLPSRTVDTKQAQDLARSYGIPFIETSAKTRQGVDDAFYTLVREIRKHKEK
KRAS G12D, sequence (P62937 whole entry): as the sequence (P62937 whole entry) above

How did the EC50 [1] turn out when `CCn1c(-c2cc(N3CCN(C)CC3)cnc2[C@H](C)OC)c2c3cc(ccc31)-c1cc(O)cc(c1)C[C@H](NC(=O)[C@H](C1CCCC1)N(C)C(=O)CN(C)C(=O)[C@H]1CN1)C(=O)N1CCC[C@H](N1)C(=O)OCC(C)(C)C2` [Example 209, (2R)—N-(2-(((1S)-1-cyclopentyl-2-(((6^3S,4S)-1^1-ethyl-2^5-hydroxy-1^2-(2-((S)-1-methoxyethyl)-5-(4-methylpiperazin-1-yl)pyridin-3-yl)-10,10-dimethyl-5,7-dioxo-6^1,6^2,6^3,6^4,6^5,6^6-hexahydro-1^1H-8-oxa-1(5,3)-indola-6(1,3)-pyridazina-2(1,3)-benzenacycloundecaphane-4-yl)amino)-2-oxoethyl)(methyl)amino)-2-oxoethyl)-N-methylaziridine-2-carboxamide] was run?
The EC50 was < 5000 nM.

And the IC50 [2]?
Its IC50 is < 10 nM.

And the IC50 [3]?
Its IC50 is < 10 nM.

What about the IC50 [4] of the same compound?
Its IC50 is 10 to 100 nM.

And the IC50 [5]?
The IC50 was 10 to 100 nM.

And the IC50 [6]?
Its IC50 is 10 to 100 nM.

And the IC50 [7]?
Its IC50 is < 10 nM.

And the IC50 [8]?
Its IC50 is 10 to 100 nM.

What about the IC50 [9] of the same compound?
The IC50 was < 10 nM.

And the IC50 [10]?
The IC50 was 10 to 100 nM.

What about the IC50 [11] of the same compound?
The IC50 was < 10 nM.

And the IC50 [12]?
Its IC50 is 100 to 1000 nM.

And the IC50 [13]?
The IC50 was 10 to 100 nM.

What about the IC50 [14] of the same compound?
Its IC50 is 10 to 100 nM.

What about the IC50 [15] of the same compound?
Its IC50 is < 10 nM.

Which EC50 [1] does the source give for `CCn1c(-c2cccnc2[C@H](C)OC)c2c3cc(ccc31)-c1cc(O)cc(c1)C[C@H](NC(=O)[C@H](C(C)C)N(C)C(=O)CN(C)C(=O)[C@@H]1CN1C1COC1)C(=O)N1CCC[C@H](N1)C(=O)OCC(C)(C)C2` (stereo partly drawn) [Example 276] here?
Its EC50 is < 5000 nM.

What about the IC50 [2] of the same compound?
The IC50 was 1000 to 10000 nM.

And the IC50 [3]?
Its IC50 is 10 to 100 nM.

What about the IC50 [4] of the same compound?
The IC50 was 10 to 100 nM.

And the IC50 [5]?
The IC50 was 10 to 100 nM.

And the IC50 [6]?
The IC50 was 10 to 100 nM.

And the IC50 [7]?
The IC50 was 10 to 100 nM.

And the IC50 [8]?
Its IC50 is 10 to 100 nM.

What about the IC50 [9] of the same compound?
The IC50 was 10 to 100 nM.

What about the IC50 [10] of the same compound?
The IC50 was 10 to 100 nM.

What about the IC50 [11] of the same compound?
Its IC50 is < 10 nM.

And the IC50 [12]?
Its IC50 is 100 to 1000 nM.

What about the IC50 [13] of the same compound?
Its IC50 is 100 to 1000 nM.

And the IC50 [14]?
The IC50 was 10 to 100 nM.

What about the IC50 [15] of the same compound?
Its IC50 is 10 to 100 nM.

What does the source list for `CCn1c(-c2cccnc2[C@H](C)OC)c2c3cc(ccc31)-c1cc(O)cc(c1)C[C@H](NC(=O)[C@H](C(C)C)N(C)C(=O)CN(C)C(=O)[C@@H]1N[C@H]1C(F)(F)F)C(=O)N1CCC[C@H](N1)C(=O)OCC(C)(C)C2` [Example 260]?
EC50 [1]: < 5000 nM; IC50 [2]: 100 to 1000 nM; IC50 [3]: 10 to 100 nM; IC50 [4]: 10 to 100 nM; IC50 [5]: 10 to 100 nM; IC50 [6]: 10 to 100 nM; IC50 [7]: < 10 nM; IC50 [8]: 10 to 100 nM; IC50 [9]: 10 to 100 nM; IC50 [10]: 10 to 100 nM; IC50 [11]: 10 to 100 nM; IC50 [12]: 10 to 100 nM; IC50 [13]: 100 to 1000 nM; IC50 [14]: 10 to 100 nM; IC50 [15]: 10 to 100 nM

Which EC50 [1] does the source give for `CCn1c(-c2cccnc2[C@H](C)OC)c2c3cc(ccc31)-c1cc(O)cc(c1)C[C@H](NC(=O)[C@H](C(C)C)N(C)C(=O)CN(C)C(=O)[C@H]1N[C@@H]1C(F)(F)F)C(=O)N1CCC[C@H](N1)C(=O)OCC(C)(C)C2` [Example 261] here?
Its EC50 is < 5000 nM.

And the IC50 [2]?
The IC50 was 100 to 1000 nM.

What about the IC50 [3] of the same compound?
Its IC50 is < 10 nM.

What about the IC50 [4] of the same compound?
Its IC50 is 10 to 100 nM.

What about the IC50 [5] of the same compound?
The IC50 was 10 to 100 nM.

And the IC50 [6]?
The IC50 was 10 to 100 nM.

And the IC50 [7]?
Its IC50 is 10 to 100 nM.

And the IC50 [8]?
Its IC50 is 10 to 100 nM.

What about the IC50 [9] of the same compound?
Its IC50 is 10 to 100 nM.

What about the IC50 [10] of the same compound?
The IC50 was 10 to 100 nM.

And the IC50 [11]?
Its IC50 is 10 to 100 nM.

And the IC50 [12]?
Its IC50 is 100 to 1000 nM.

What about the IC50 [13] of the same compound?
Its IC50 is 100 to 1000 nM.

And the IC50 [14]?
The IC50 was 10 to 100 nM.

What about the IC50 [15] of the same compound?
The IC50 was 10 to 100 nM.

What does the source list for `CC[C@@H]1N[C@@H]1C(=O)N(C)CC(=O)N(C)[C@H](C(=O)N[C@H]1Cc2cc(O)cc(c2)-c2ccc3c(c2)c(c(-c2cccnc2[C@H](C)OC)n3CC)CC(C)(C)COC(=O)[C@@H]2CCCN(N2)C1=O)C(C)C` [Example 263]?
EC50 [1]: < 5000 nM; IC50 [2]: 100 to 1000 nM; IC50 [3]: 10 to 100 nM; IC50 [4]: 10 to 100 nM; IC50 [5]: 10 to 100 nM; IC50 [6]: 10 to 100 nM; IC50 [7]: 10 to 100 nM; IC50 [8]: 10 to 100 nM; IC50 [9]: 10 to 100 nM; IC50 [10]: 10 to 100 nM; IC50 [11]: < 10 nM; IC50 [12]: 100 to 1000 nM; IC50 [13]: 100 to 1000 nM; IC50 [14]: 10 to 100 nM; IC50 [15]: < 10 nM
